Source: the NIST ThermoML archive (doi:10.1016/j.fluid.2011.07.005)

What was measured:
[1] = refractive index (Na D-line) (dimensionless); xn = mol fraction of the nth substance listed; settings: 298.15 K, 101.3 kPa, Liquid, Standard Abbe refractometry
[2] = xn = mol fraction of the nth substance listed; settings: 298.15 K, 101.3 kPa, Liquid, Vibrating tube method
[3] = 298.15 K; 101.33 kPa; Liquid; Vibrating tube method
[4] = refractive index (Na D-line) (dimensionless); settings: 298.15 K; 101.33 kPa; Liquid; Standard Abbe refractometry

CCCCCCCCCCCCCC[P+](CCCCCC)(CCCCCC)CCCCCC.[Cl-] [trihexyl(tetradecyl)phosphonium chloride] + CCO
Settings | mass density, [2] [kg/m3] | refractive index, [1]
x2 = 0.0616 | 891.17 | 1.4814
x2 = 0.1053 | 890.69 | 1.4807
x2 = 0.2113 | 889.27 | 1.4789
x2 = 0.3038 | 887.74 | 1.4764
x2 = 0.4034 | 885.65 | 1.4742
x2 = 0.499 | 882.9 | 1.4709
x2 = 0.6004 | 878.9 | 1.466
x2 = 0.7038 | 872.77 | 1.4585
x2 = 0.7993 | 863.65 | 1.4473
x2 = 0.8999 | 845.08 | 1.425
x2 = 0.9497 | 826.4 | 1.4058
x2 = 0.9808 | 805.94 | 1.3801

CCCCCCCCCCCCCC[P+](CCCCCC)(CCCCCC)CCCCCC.[Cl-] [trihexyl(tetradecyl)phosphonium chloride]
Settings | mass density [kg/m3] | refractive index
[3] | 891.82 | –
[4] | – | 1.48175

CC(CC(C)(C)C)CP(=O)([O-])CC(C)CC(C)(C)C.CCCCCCCCCCCCCC[P+](CCCCCC)(CCCCCC)CCCCCC
Settings | mass density [kg/m3] | refractive index
[3] | 886.43 | –
[4] | – | 1.47125

CCCCCCCCCCCCCC[P+](CCCCCC)(CCCCCC)CCCCCC.[Cl-] [trihexyl(tetradecyl)phosphonium chloride] + CC(C)OC(C)C
Settings | mass density, [2] [kg/m3] | refractive index, [1]
x2 = 0.0515 | 889.99 | 1.4808
x2 = 0.0994 | 888.06 | 1.4794
x2 = 0.2017 | 883.38 | 1.4763
x2 = 0.2989 | 878.11 | 1.4726
x2 = 0.4018 | 871.47 | 1.4678
x2 = 0.4997 | 863.46 | 1.4641
x2 = 0.5994 | 852.63 | 1.4553
x2 = 0.7017 | 836.78 | 1.4478
x2 = 0.8004 | 814.03 | 1.4384
x2 = 0.8993 | 778.62 | 1.4076
x2 = 0.9491 | 752.99 | 1.3881
